For data set [1], the system named is HCV (JFH-1) secreted by infected Huh-7.5.1 cells. Kind of data set: HCV secretion by JFH-1 infected Huh-7.5.1 cells (HCV core antigen ELISA, HCV positive strand RNA qPCR). It is filed as cell-based, Hepatitis C virus. On the procedure:
The Huh-7.5.1 human hepatoma cell line and a plasmid containing the JFH-1 genome were kindly provided by Dr. Chisari (Scripps Research Institute, CA) and Dr. Wakita (National Institute of Infectious Diseases, Tokyo) respectively. Huh-7.5.1 cells were cultured in DMEM medium supplemented with 10% FBS, 200 units/ml penicillin and […] streptomycin in a 5% CO2-humidified incubator at 37° C. In vitro transcribed genomic JFH-1 RNA was delivered to cells by liposome-mediated transfection as described by Zhong et al. (2005)(8). Infected Huh-7.5.1 cells were passaged every 3 days and used at passage <15. The presence of HCV in these cells and corresponding supernatants were determined by quantitative Polymerase Chain Reaction (qPCR) and immunofluorescence staining. Primary human hepatocytes were purchased from BD Biosciences (San Jose, Calif.) cultured on a collagen-coated 12 well plate in C+H culture media composed of DMEM supplemented with 10% heat-inactivated FBS, 200 U/mL penicillin/streptomycin, 7.5 μg/mL hydrocortisone, 20 ng/mL EGF, 14 ng/mL glucagons and 0.5 U/mL insulin. The media was supplemented with 2% DMSO for long-term culture of the primary cells.
(§1) HCV-infected Huh-7.5.1 cells were plated on a 6-well plate at a density of 1×10^5 cells/cm^2 and cultured overnight in standard medium. Prior to the beginning of the experiment, the cells were washed 3 times with PBS and cultured with DMEM containing 5% lipoprotein-free FBS. Oleate, Insulin, Naringenin, and Brefeldin A were added at this time as described in the text. Following 24 hours of incubation, the plate was gently agitated to release mechanically bound particles, the media was collected, filtered to remove cellular debris, and stored at −80° C. for further analysis. The attached cells were washed 3 times with PBS, harvested, pelleted and stored at −80° C. for further analysis.
Huh-7.5.1 secreted HCV core antigen was detected in the media using Wako Chemicals (Cambridge, Mass.) ORTHO HCV antigen ELISA kit. Media was used as is, and the assay was carried out according to manufacturer's directions.
(§2) Virus samples collected in each experiment were filtered with a 0.45 μm filter and a volume of 100 μL for each sample was heated at 95° C. for 45 min. The reverse transcription reaction step was performed on a Mastercycler epgrdientS (Eppendorf) instrument using Omniscript and Sensiscript RT Kits (Qiagen). Real time PCR was performed on a Light Cycler LC-24 (Idaho Technology), using SuperScript™ III Platinum® CellsDirect Two-Step qRT-PCR Kits (Invitrogen) for quantitative PCR. For reverse transcription step, 2 μL of sample without RNA extraction were used. For real time PCR, 1 μL of the reverse transcription reactions was used. All reactions were performed according to the manufacturer's instructions using the primers detailed in Table 1.
However, this experiment was carried out on cells continuously producing the virus. Long-term treatment could potentially have a greater effect. […] This treatment is compared to the current standard-of-care, 1000 i.u. of Interferon α (IFNα). Both treatments lowered HCV RNA to a similar level, 96±5% and 93±5% respectively.
(In general: ELISA stands for enzyme-linked immunosorbent assay.)

In data set [2] the test system is HCV (JFH-1) infection of naïve Huh7.5.1 cells. Kind of data set: HCV infectivity of cell culture supernatant on naïve Huh7.5.1 cells. It is filed as cell-based, Hepatitis C virus. As to conditions: Hepatitis C virus, Huh-7.5.1; supernatant after 24 hours stimulation; naringenin 200 μM, brefeldin A 2.5 μg/ml. On the procedure: The infectivity of the secreted HCV particles was measured as previously described (8). Naïve Huh7.5.1 cells were grown to 80% confluence and exposed to cell culture supernatants diluted 10-fold in culture media. Following 1 hour incubation at 37° C., the media was replaced, and the cells were cultured for 3 additional days. Levels of HCV infection were determined by immunofluorescence staining for HCV core protein. The viral titer is expressed as focus forming units per milliliter of supernatant (ffu/ml).

Another data set has as its system ApoB. Kind of data set: ApoB secretion by JFH-1 infected Huh-7.5.1 cells (human ApoB ELISA). Format: cell-based. Conditions: 24 hours, brefeldin A 2.5 μg/ml. On the procedure: as §1
Huh-7.5.1 and primary human hepatocytes secreted ApoB was detected in the media using ALerCHEK, Inc (Portland, Me.) total human ApoB ELISA kit. Media was diluted 1:10 with the specimen diluent, and the assay was carried out according to manufacturer's directions.
HCV-infected Huh-7.5.1 cells were plated T-25 tissue culture flasks at a density of 1×10^5 cells/cm^2 and cultured overnight in standard medium. Prior to silencing, the cells were washed 3 times with PBS and media was replaced with OptiMEM basal medium. SureSilencing shRNA (GFP) plasmids against human ApoB100 as well as shRNA plasmid control (500 ng/ml) were combined with lipofectamine 2000 in OptiMEM and incubated with the cells overnight. SureSilencing shRNA plasmids code for GFP which was used to sort the transfected Huh7.5.1 cells, using FACSAria (BD Biosciences) located at the Partners AIDS Research Center. Transfected cells (10% of the total population) were sorted directly into a 12-well plate and allowed to adhere overnight. Culture media was conditioned by the transfected cells for 24 hours and analyzed as described above.

Another data set deals with LXRα. Kind of data set: LXRα transcription in infected Huh7.5.1 cells. It is filed as cell-based, human. Conditions: short term 24 hours stimulation of Huh7.5.1 cells. How it is done:
as §2
PPARα and LXRα are ligand-activated transcription factors which control much of the fasted-to-fed transition and were previously shown to be important in the development of inflammation and insulin resistance. […] Following a short term 24 hours stimulation of Huh7.5.1 cells PPARα transcription increased by 86%, while LXRα was decreased by 25%. PPARα is the target of fibrates and plays a major role in the downregulation of inflammation, increasing sensitivity to insulin, and modulating dyslipidemia.

The test system of the next data set is MTP. Kind of data set: MTP mRNA level by qPCR in infected Huh7.5.1 cells. Format: cell-based, human. As to conditions: naringenin 24 hours.
The next data set has as its system actin. Kind of data set: Actin mRNA level by qPCR in infected Huh7.5.1 cells. It is filed as cell-based, human. As to conditions: naringenin 24 hours. How it is done:
as §2
(Quantitative PCR measures a nucleic acid by following its amplification.)

The conditions of data set [3]: 400 mg/day oral, hypercholesterolemic patients; cited from earlier work.
The conditions of data set [4]: oral; cited from earlier work.
A short description of another data set: physchem. As to conditions: 37 °C, water, thermodynamic from solid, naringenin solubility in water.
The conditions of data set [5]: rats, intraperitoneal injection; cited from earlier work.
The conditions of data set [6]: guinea pigs, intraperitoneal injection; cited from earlier work.
Where [7] appears, read: 24 hours, brefeldin A 2.5 μg/ml.

Values after ≈ are worked out from the molar mass of the structure shown. Like-named read-outs stand apart in the source and are kept apart here.

The source of these data is US20160228575A1, “NARINGENIN COMPLEXES AND METHODS OF USE THEREOF” (THE GENERAL HOSPITAL CORPORATION, priority 2008, published 2016).

As usually defined, the inhibition is how much of the control response was suppressed. Read a high inhibition as a response far below the control. Usually solubility stands for how much of the substance goes into solution per volume. Read a low solubility as little dissolved substance.

For `O=C1C[C@@H](c2ccc(O)cc2)Oc2cc(O)cc(O)c21` [naringenin], in [1], the “effective dose of naringenin in cell culture” value is on record as 0.20 mM. Further, the “HCV core protein secretion (in words)” value in data set [1] (setting [7]) is on record as “inhibits”. The “HCV positive strand RNA secretion (in words)” value in data set [1] (setting [7]) was “inhibits”. Besides, the inhibition at 200 µM was 80% in data set [1] (Hepatitis C virus, 200 μM naringenin, short-term (24 hrs), infected Huh-7.5.1 cells) and 79% in data set [2]. Also, the “inhibition of HCV (RNA) secretion, long-term treatment” value in data set [1] (long-term daily treatment of infected Huh7.5.1 cells, naringenin 200 μM, IFNα 1000 i.u.) turned out to be 96±5%. Moreover, in the data set on ApoB, the “ApoB secretion (in words)” value is reported as “Inhibition”. Further, the “decrease of LXRα transcription” value with LXRα is recorded as 25%. The “MTP mRNA level” value with MTP is given as “remained unchanged”. Also, in the data set on actin, the “actin mRNA level” value is “remained unchanged”. The “lowering of LDL levels” value in data set [3] is listed as 17%. Further, in data set [4], the “absorbance through the intestinal wall (intestinal absorption)” value is given as “about 6%”. For the same compound, in “physchem”, the solubility is 40 µM (≈ 10.9 µg/mL). Also, the “LD50 (50% kill)” value in [5] and in [6] was 2000 mg/kg in each case.
